In PMC8482815, “Targeting Host Glycolysis as a Strategy for Antimalarial Development” (Frontiers in Cellular and Infection Microbiology, 2021):
“And” between values parts separate entries of the source, which are not always exact repeats. Equal entries are not always repeated.

Test system: human erythrocytes
Test: Untargeted metabolomics and 13C-glucose tracing of enolase inhibitor treated erythrocytes
Format: cell-based
Conditions: 0.5h
Procedure: Freshly collected erythrocytes were washed, resuspended to 10% hematocrit in buffer [25mM HEPES (pH 7.4), 120mM NaCl, 5.4mM KCl, 1.8mM CaCl2, and 1mM NaH2PO4], incubated for 1 hour at 37°C, then centrifuged at 2000xg for 5 minutes at 4°C, resuspended in fresh wash buffer to 30-40% hematocrit, and split into 210µL aliquots of packed erythrocytes. […] All samples were incubated at 37°C shaking at 500 RPM. Triplicate samples of supernatants and packed erythrocytes were collected at 0, 0.5, 1, and 6-hour intervals and snap-frozen in liquid N2.
RBC and media samples were extracted at 1:10 and 1:20 dilutions, respectively, in 5:3:2 MeOH : MeCN:H2O v/v/v, and supernatants analyzed on a Thermo Vanquish UHPLC coupled to a Thermo Q Exactive mass spectrometer, as extensively described ([Nemkov et al., 2015]; [Nemkov et al., 2017]). The extraction buffer was supplemented with 40uM 3-^13C lactate to allow absolute quantification of lactate isotopologues, including lactate generated via glycolysis ([1,2,3-^13C3] enriched) vs. the pentose phosphate pathway ([2,3-^13C2] enriched), as described ([Reisz et al., 2016]). Metabolite assignments, peak area integration and isotopologues distributions were determined using Maven (Princeton University) ([Nemkov et al., 2015]; [Nemkov et al., 2017]).
Data were auto-scaled and normalized to zero-hour time points. Metabolites were removed from the dataset if greater than 50% of the samples contained missing values or the relative standard deviation among replicates exceeded 25%. Additionally, data was filtered using the interquartile range to reduce near-constant values from the experiment by 5%.
A principal component analysis of preprocessed data was plotted with the 95% confidence interval minimum volume enclosing ellipsoid for each respective group (MetaboAnalyst, cluster, plotly). A two-way repeated measures analysis of variance (ANOVA) was performed with multiple comparisons corrected for using a false discovery rate p-value cutoff of 0.05. Metabolite-Pathway analysis was performed using the R package of MetaboAnalyst, as previously described ([Xia and Wishart, 2010]). Metabolite-Protein nodal analysis was performed using omicsnet.ca and as previously described ([Zhou and Xia, 2018]).

[1] = treated erythrocytes, one value per replicate sample, polarity +
[2] = treated erythrocytes, one value per replicate sample, polarity -
[3] = treated erythrocytes, replicate samples

## CC(C)(C)C(=O)OCOP(=O)(OCOC(=O)C(C)(C)C)C1CCCN(O)C1=O (stereo not shown) [POMHEX]
Replicate samples
  AMP level (metabolomics signal): 2.04E+06 and 4.36E+06 and 1.74E+06
  ATP level (metabolomics signal): 4.24E+03 and 2.55E+03 and 4.82E+03
  Adenine level (metabolomics signal): 1.54E+05 and 1.61E+05 and 1.63E+05
  Cytosine level (metabolomics signal): 6.37E+05 and 5.53E+05 and 6.73E+05
  L-alanine level (metabolomics signal): 1.10E+07 and 9.02E+06 and 1.16E+07
  L-arginine level (metabolomics signal): 8.79E+06 and 1.37E+07 and 1.09E+07
  L-asparagine level (metabolomics signal): 5.66E+06 and 6.04E+06 and 5.52E+06
  L-aspartate level (metabolomics signal): 5.07E+07 and 4.67E+07 and 4.55E+07
  L-cysteine level (metabolomics signal): 3.90E+05 and 9.84E+05 and 3.84E+05
  L-glutamate level (metabolomics signal): 3.66E+07 and 3.55E+07 (2×)
  L-glutamine level (metabolomics signal): 6.00E+07 and 6.77E+07 and 7.03E+07
  L-histidine level (metabolomics signal): 1.31E+06 and 1.35E+06 and 1.30E+06
  L-isoleucine level (metabolomics signal): 1.70E+07 and 1.55E+07 and 1.61E+07
  L-leucine level (metabolomics signal): 2.16E+08 and 2.81E+08 and 2.05E+08
  L-lysine level (metabolomics signal): 2.55E+06 and 2.50E+06 and 1.99E+06
  L-methionine level (metabolomics signal): 1.95E+07 and 2.57E+07 and 1.85E+07
  L-phenylalanine level (metabolomics signal): 1.37E+07 and 1.80E+07 and 1.25E+07
  L-proline level (metabolomics signal): 4.87E+07 and 5.22E+07 and 3.89E+07
  L-serine level (metabolomics signal): 4.56E+06 and 4.84E+06 and 4.45E+06
  L-threonine level (metabolomics signal): 6.27E+06 and 7.92E+06 and 7.08E+06
  L-tryptophan level (metabolomics signal): 5.02E+06 and 4.78E+06 and 4.62E+06
  L-tyrosine level (metabolomics signal): 2.37E+07 (2×) and 3.01E+07
  L-valine level (metabolomics signal): 1.71E+08 and 1.67E+08 and 1.60E+08
  dCMP level (metabolomics signal): 2.34E+04 and 2.37E+04 and 1.78E+04
  dTMP level (metabolomics signal): 9.79E+05 and 1.15E+06 and 1.17E+06
  glycine level (metabolomics signal): 2.21E+06 and 2.32E+06 and 2.35E+06
[1]
  N-Acyl-D-aspartate (C06380) metabolite signal: 2.31E+05 and 2.56E+05 and 2.58E+05
  Poly-gamma-D-glutamate (C05723) metabolite signal: 3.95E+07 and 4.61E+07 and 4.86E+07
[2]
  D-Ribitol 5-phosphate (C01068) metabolite signal: 2.02E+04 and 2.67E+04 and 2.32E+04
  D-glucono-1,5-lactone (C00198) metabolite signal: 5.42E+05 and 4.39E+05 and 4.31E+05
  L-Noradrenaline (C00547) metabolite signal: 7.51E+04 and 1.32E+05 and 6.59E+04
  Oxalosuccinate (C05379) metabolite signal: 1.39E+05 and 1.40E+05 and 1.27E+05
  Pyridoxamine (C00534) metabolite signal: 3.25E+04 and 2.97E+04 and 2.95E+04
  Thioredoxin disulfide (C00343) metabolite signal: 5.85E+04 and 1.53E+04 and 4.46E+04
[3]
  1-4-beta-D-Xylan (metabolite signal): 2.40E+05 and 2.75E+05 and 1.64E+05
  2-Hydroxyglutarate/Citramalate (C02630) metabolite signal: 1.06E+05 and 6.70E+04 and 9.81E+04
  5-6-Dihydrothymine (C00906) metabolite signal: 3.14E+05 and 2.95E+05 and 2.82E+05
  5-10-Methenyltetrahydrofolate (metabolite signal): 3.07E+05 and 3.19E+05 and 3.47E+05
  5-Hydroxyisourate (C11821) metabolite signal: 6.72E+06 and 4.60E+06 and 5.11E+06
  5-L-Glutamyl-taurine (metabolite signal): 1.65E+05 and 1.74E+05 and 8.68E+04
  5-Oxoproline (metabolite signal): 1.01E+06 and 8.27E+05 and 8.80E+05
  (S)(+)-Allantoin (C02350) metabolite signal: 2.15E+04 and 0.00E+00 and 2.93E+04
  Allantoate (C00499) metabolite signal: 2.52E+05 and 3.85E+05 and 2.39E+05
  Ascorbate (metabolite signal): 9.38E+04 and 1.10E+05 and 1.13E+05
  CMP-N-acetylneuraminate (metabolite signal): 2.14E+04 and 1.46E+04 and 2.19E+04
  Carnosine (metabolite signal): 2.66E+05 and 1.54E+05 and 2.52E+05
  Citrate (C00158) metabolite signal: 4.21E+04 and 3.38E+04 and 3.43E+04
  Creatine (metabolite signal): 3.82E+08 and 3.13E+08 and 3.15E+08
  Creatinine (metabolite signal): 3.99E+06 and 3.09E+06 and 3.73E+06
  Cys-Gly (metabolite signal): 2.17E+06 and 2.13E+06 and 1.97E+06
  D-Glucosamine (metabolite signal): 2.57E+05 and 3.05E+05 and 2.16E+05
  D-Glucose (C00031) metabolite signal: 6.04E+06 and 6.91E+06 and 5.92E+06
  D-Ribose (C00121) metabolite signal: 1.90E+05 and 1.42E+05 and 1.71E+05
  Dehydroascorbate (metabolite signal): 1.55E+04 and 2.20E+04 and 1.72E+04
  Dihydrofolate (metabolite signal): 1.72E+06 and 1.97E+06 and 2.05E+06
  Dimethylglycine (metabolite signal): 1.06E+06 and 1.08E+06 and 9.75E+05
  Diphosphate (C00013) metabolite signal: 3.53E+03 and 8.59E+03 and 2.40E+03
  Fumarate (C00122) metabolite signal: 1.24E+05 and 9.52E+04 and 1.10E+05
  Glutathione (C00051) metabolite signal: 1.46E+08 and 1.38E+08 and 1.22E+08
  Glutathione disulfide (metabolite signal): 2.34E+05 and 1.46E+05 and 2.55E+05
  Hypoxanthine (C00262) metabolite signal: 4.07E+04 and 4.68E+04 and 4.37E+04
  IMP (C00130) metabolite signal: 0.00E+00 and 1.71E+05 and 8.01E+04
  Inosine (C00294) metabolite signal: 1.09E+05 and 6.95E+04 and 7.35E+04
  L-Citrulline (metabolite signal): 4.16E+06 and 4.12E+06 and 4.14E+06
  L-Homoserine (metabolite signal): 1.91E+05 and 2.39E+05 and 1.86E+05
  Lactate (C01432) metabolite signal: 8.53E+06 and 7.59E+06 and 8.32E+06
  Malate (C00149) metabolite signal: 2.09E+05 and 1.30E+05 and 1.62E+05
  Mannitol (C00392) metabolite signal: 1.34E+05 and 1.15E+05 and 1.42E+05
  N-Acetylneuraminate (metabolite signal): 3.02E+04 and 1.89E+04 and 1.91E+04
  N-Glycoloyl-neuraminate (metabolite signal): 1.66E+05 and 1.75E+05 and 1.62E+05
  NAD+ (C00003) metabolite signal: 5.24E+05 and 2.47E+05 and 4.46E+05
  Nicotinamide (C00153) metabolite signal: 3.74E+07 and 4.23E+07 and 3.90E+07
  Ornithine (metabolite signal): 2.17E+06 and 2.00E+06 and 1.65E+06
  Oxaloacetate (C00036) metabolite signal: 3.93E+04 and 5.60E+04 and 5.05E+04
  Phosphoserine (metabolite signal): 5.17E+04 and 3.63E+04 and 3.54E+04
  Putrescine (metabolite signal): 7.82E+04 and 7.87E+04 and 8.82E+04
  Pyridoxal (C00250) metabolite signal: 7.34E+04 and 7.61E+04 and 7.64E+04
  Pyruvate (C00022) metabolite signal: 5.86E+05 and 6.64E+05 and 6.39E+05
  S-Glutathionyl-L-cysteine (metabolite signal): 1.61E+05 and 1.05E+05 and 1.77E+05
  Sedoheptulose 1-phosphate (C06222) metabolite signal: 1.57E+04 and 1.33E+04 and 1.23E+04
  Spermidine (metabolite signal): 1.10E+07 and 8.21E+06 and 9.51E+06
  Spermine (metabolite signal): 1.10E+07 and 9.13E+06 and 8.60E+06
  Succinate (C00042) metabolite signal: 7.14E+04 and 9.44E+04 and 6.66E+04
  Thymidine (C00214) metabolite signal: 1.01E+04 and 1.94E+04 and 1.37E+04
  UDP (C00015) metabolite signal: 1.69E+05 and 2.66E+05 and 2.03E+05
  UDP-N-acetyl-D-glucosamine (metabolite signal): 1.85E+04 (2×) and 1.14E+04
  UDP-glucose (C00029) metabolite signal: 3.86E+04 and 2.14E+04 and 2.96E+04
  Urate (C00366) metabolite signal: 3.40E+04 and 3.79E+04 and 3.24E+04
  Xanthine (C00385) metabolite signal: 3.40E+05 and 3.32E+05 and 3.09E+05
  alpha-D-Glucosamine 1-phosphate (metabolite signal): 2.32E+06 and 1.61E+06 and 1.74E+06
  alpha-D-Ribose 1-phosphate (C00620) metabolite signal: 1.49E+05 and 1.17E+05 and 8.56E+04
  gamma-Glutamyl-gamma-aminobutyrate (metabolite signal): 9.84E+04 and 1.13E+05 and 1.05E+05
  gamma-L-Glutamyl-D-alanine (metabolite signal): 3.61E+04 and 2.95E+04 and 2.86E+04
  gamma-L-Glutamyl-L-cysteine (metabolite signal): 2.26E+04 and 4.82E+04 and 4.78E+04
